In DBAASP one finds MIC data, which are given here for 3 compounds.

Common to all, as to experiment: ≥ marks a high value that may be exact or a test limit, other limits are often not marked, values filed in µg/mL are converted to µM
Test [1] relates to Klebsiella pneumoniae ATCC 10031.
Test [2] concerns Candida albicans ATCC 36232.
Test [3] has as its system Proteus mirabilis ATCC 25933.
The subject of test [4] is Escherichia coli KCTC 2433.
Test [5] concerns Staphylococcus aureus KCTC 3881.
The subject of test [6] is Pseudomonas aeruginosa ATCC 9027.
The subject of test [7] is Bacillus subtilis ATCC 6633.
Test [8] has as its system Micrococcus luteus ATCC 4698.
For test [9], the system named is Staphylococcus epidermidis ATCC 12228.
Test [10] has as its system Shigella dysenteriae ATCC 9752.
Test [11] relates to Acinetobacter baumannii LMG 01041.
Test [12] deals with Mycobacterium tuberculosis H37Rv.
Test [13] relates to Escherichia coli ATCC 25922.
Test [14] has as its system Klebsiella pneumoniae LMG 20218.
Test [15] relates to Pseudomonas aeruginosa H103.
Test [16] relates to Malassezia furfur KCTC 7744.
The test system of test [17] is Klebsiella aerogenes LMG 02094.
Test [18] has as its system Staphylococcus epidermidis.
The subject of test [19] is Staphylococcus aureus ATCC 25923.
Test [20] has as its system Staphylococcus aureus USA 100.
For test [21], the system named is Staphylococcus aureus USA 300.
In test [22] the test system is Trichosporon beigelii KCTC 7707.
In test [23] the test system is Escherichia coli LMG 15862.
Another test has as its system Escherichia coli UB1005.
The test system of test [24] is Enterococcus faecalis ATCC 29212.
Test [25] relates to Salmonella enterica serovar Typhimurium.
Test [26] concerns Pseudomonas aeruginosa PAO1 H103.
The test system of test [27] is Pseudomonas aeruginosa LMG 6395.
The test system of the next test is Candida albicans.
The subject of test [28] is Candida parapsilosis ATCC 22019.
In test [29] the test system is Staphylococcus aureus ATCC 29213.
Test [30] deals with Escherichia coli KCCM 11569.
Test [31] has as its system Bacillus subtilis KCCM 11495.

Structures are written as SMILES. ≈ marks a conversion by molar mass, not a printed value.

`CC[C@H](C)[C@H](NC(=O)[C@H](CC(C)C)NC(=O)[C@@H](N)Cc1ccccc1)C(=O)NCC(=O)N[C@@H](CCSC)C(=O)N[C@H](C(=O)N[C@@H](Cc1cnc[nH]1)C(=O)NCC(=O)N[C@@H](CC(C)C)C(=O)N[C@H](C(=O)N[C@H]1CSSC[C@@H](C(=O)O)NC(=O)[C@H](CCCCN)NC(=O)[C@H](CCCN=C(N)N)NC(=O)[C@H](CO)NC(=O)[C@H]([C@@H](C)CC)NC(=O)[C@H](CC(C)C)NC1=O)[C@@H](C)CC)[C@@H](C)O` [FLIGMTHGLICLISRKC]: the MIC (commonly the least concentration at which growth counts as inhibited) in [1] was no less than 52.5 µM; in test [2], no less than 52.5 µM; in test [3], no less than 52.5 µM; in test [4], no less than 52.5 µM; in test [5] it was 13.1 µM (≈ 25 µg/mL); in test [6], greater than 52.5 µM. Also, the MIC in test [7] is 26.2 µM (≈ 49.9 µg/mL); in test [8] it was 6.56 µM (≈ 12.5 µg/mL); in test [9] it was 31.5 µM (≈ 59.9 µg/mL); in [10] it was no less than 52.5 µM.
Take `CC[C@H](C)[C@H](NC(=O)[C@@H](NC(=O)[C@H](Cc1c[nH]c2ccccc12)NC(=O)[C@@H](NC(=O)[C@@H](N)CCCN=C(N)N)[C@@H](C)CC)C(C)C)C(=O)N[C@@H](Cc1c[nH]c2ccccc12)C(=O)N[C@@H](CCCN=C(N)N)C(=O)N[C@@H](CCCN=C(N)N)C(N)=O` [RIWVIWRR]: the MIC in test [11] amounted to 2 µM (≈ 2.37 µg/mL); in test [12], 2.2 µM (≈ 2.6 µg/mL); in [13] it was 3.38 µM (≈ 4 µg/mL); in test [14] it was 6 µM (≈ 7.1 µg/mL); in [15] it was 6.75 µM (≈ 7.99 µg/mL); in test [16], 25 µM (≈ 29.6 µg/mL). For the same compound, the MIC is 5 µM (≈ 5.92 µg/mL) in test [17]; 1.69 µM (≈ 2 µg/mL) in test [18]; 1.69 µM (≈ 2 µg/mL) in test [19]; 6.25 µM (≈ 7.4 µg/mL) in test [20]; 6.25 µM (≈ 7.4 µg/mL) in test [21]; 12.5 µM (≈ 14.8 µg/mL) in [22]. Moreover, the MIC was determined as 3 µM (≈ 3.55 µg/mL) in test [23]; 12.5 µM (≈ 14.8 µg/mL) in test [6]; 1.69 µM (≈ 2 µg/mL) against Escherichia coli UB1005; 1.69 µM (≈ 2 µg/mL) in [24]; 6.75 µM (≈ 7.99 µg/mL) in [25]; 3.38 µM (≈ 4 µg/mL) in test [26]. In addition, the MIC in test [27] was found to be 3 µM (≈ 3.55 µg/mL); with Candida albicans, 6.75 µM (≈ 7.99 µg/mL); in test [28], 12.5 µM (≈ 14.8 µg/mL); in test [29], 6.75 µM (≈ 7.99 µg/mL).
As to `CC(C)C[C@H](NC(=O)CNC(=O)[C@H](Cc1cnc[nH]1)NC(=O)[C@H](Cc1cnc[nH]1)NC(=O)[C@H](CC(C)C)NC(=O)[C@H](CC(C)C)NC(=O)[C@H](C)NC(=O)[C@H](CC(N)=O)NC(=O)[C@H](CC(C)C)NC(=O)[C@@H](N)Cc1c[nH]c2ccccc12)C(=O)N[C@@H](CC(N)=O)C(=O)N[C@@H](CS)C(=O)N[C@@H](C)C(=O)N[C@@H](CCCCN)C(=O)NCC(=O)N[C@H](C(N)=O)C(C)C` [WLNALLHHGLNCAKGV], the MIC in [30] came to 25.9 µM (≈ 45.2 µg/mL); in [31], 6.48 µM (≈ 11.3 µg/mL).
